Holding throughout (format): cell-based
In experiment [1] the target is EGFR(D770_N771insSVD) expressing Ba/F3 stable cell line (Homo sapiens, UniProt P00533, DUP768-770, cells depend on it). Kind of experiment: Cellular proliferation (Alamar Blue) assay, EGFR D770_N771insSVD Ba/F3. The conditions noted are these: 72 hr, read-out: D770 IC50. The essentials:
(§1)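 Proliferation of mutant-dependent Ba/F3 lines is measured by Alamar Blue reduction over 3 hours, following a 72 hr incubation with test compound spanning 10-0.0005 μM final in threefold dilutions. Cells go in at 15,000 per well in RPMI containing 10% FBS the day before dosing.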

Experiment [2] has as its target EGFR (A767_dupASV) expressing Ba/F3 stable cell line (Homo sapiens, UniProt P00533, DUP767-769, cells depend on it). The experiment is described as follows: Cellular proliferation (Alamar Blue) assay, EGFR A767_dupASV Ba/F3. The note with it: 72 hr, read-out: A767 IC50. The essentials:
as §1

The next experiment relates to A431 cells. The experiment is described as follows: Cellular proliferation (Alamar Blue) assay, A431.
For experiment [3], the target named is EGFR (H773insNPH) expressing Ba/F3 stable cell line (Homo sapiens, UniProt P00533, DUP771-773, cells depend on it). Kind of experiment: Cellular proliferation (Alamar Blue) assay, EGFR H773insNPH Ba/F3. The conditions noted are these: 72 hr, read-out: NPH IC50. The protocol: • 1. EGFR(D770_N771insSVD) expressing Ba/F3 stable cell line • 2. EGFR (A767_dupASV) expressing Ba/F3 stable cell line • 3. A431 cells • 4. EGFR (H773insNPH) expressing Ba/F3 stable cell line • 5. HER2 (A775_G776insYVMA) expressing Ba/F3 stable cell line Assay Procedure: • 1. Seed cells at 5000 for A431 and 15,000 cells for Ba/F3 in 100 μL/well in complete media (for A431: DMEM with […] and for Ba/F3 cells: RPMI with 10% FBS) in 96-well tissue culture plate. Leave outer wells without cells for background measurements. Incubate at 37 degree Celsius in […] humidified incubator for 16-18 hours. • 2. Add 0.025 ml of 5× concentration compound dilution or DMSO control. Final compound concentration range is 10-0.0005 μM prepared in 3-fold serial dilutions. Incubate for 72 hr at 37 degree Celsius in […] humidified incubator. • 3. Add 0.0125 ml Alamar Blue™ reagent to each well with multi-channel pipette and tap gently on each side of the plate to mix. Incubate for 3 hours at 37 degree Celsius in 5% CO2 humidified incubator. • 4. […] Data analysis was performed using XLfit 5.5.0.5.
Chain of EGFR (H773insNPH) expressing Ba/F3 stable cell line (P00533 with tags, fused parts or gaps DUP771-773): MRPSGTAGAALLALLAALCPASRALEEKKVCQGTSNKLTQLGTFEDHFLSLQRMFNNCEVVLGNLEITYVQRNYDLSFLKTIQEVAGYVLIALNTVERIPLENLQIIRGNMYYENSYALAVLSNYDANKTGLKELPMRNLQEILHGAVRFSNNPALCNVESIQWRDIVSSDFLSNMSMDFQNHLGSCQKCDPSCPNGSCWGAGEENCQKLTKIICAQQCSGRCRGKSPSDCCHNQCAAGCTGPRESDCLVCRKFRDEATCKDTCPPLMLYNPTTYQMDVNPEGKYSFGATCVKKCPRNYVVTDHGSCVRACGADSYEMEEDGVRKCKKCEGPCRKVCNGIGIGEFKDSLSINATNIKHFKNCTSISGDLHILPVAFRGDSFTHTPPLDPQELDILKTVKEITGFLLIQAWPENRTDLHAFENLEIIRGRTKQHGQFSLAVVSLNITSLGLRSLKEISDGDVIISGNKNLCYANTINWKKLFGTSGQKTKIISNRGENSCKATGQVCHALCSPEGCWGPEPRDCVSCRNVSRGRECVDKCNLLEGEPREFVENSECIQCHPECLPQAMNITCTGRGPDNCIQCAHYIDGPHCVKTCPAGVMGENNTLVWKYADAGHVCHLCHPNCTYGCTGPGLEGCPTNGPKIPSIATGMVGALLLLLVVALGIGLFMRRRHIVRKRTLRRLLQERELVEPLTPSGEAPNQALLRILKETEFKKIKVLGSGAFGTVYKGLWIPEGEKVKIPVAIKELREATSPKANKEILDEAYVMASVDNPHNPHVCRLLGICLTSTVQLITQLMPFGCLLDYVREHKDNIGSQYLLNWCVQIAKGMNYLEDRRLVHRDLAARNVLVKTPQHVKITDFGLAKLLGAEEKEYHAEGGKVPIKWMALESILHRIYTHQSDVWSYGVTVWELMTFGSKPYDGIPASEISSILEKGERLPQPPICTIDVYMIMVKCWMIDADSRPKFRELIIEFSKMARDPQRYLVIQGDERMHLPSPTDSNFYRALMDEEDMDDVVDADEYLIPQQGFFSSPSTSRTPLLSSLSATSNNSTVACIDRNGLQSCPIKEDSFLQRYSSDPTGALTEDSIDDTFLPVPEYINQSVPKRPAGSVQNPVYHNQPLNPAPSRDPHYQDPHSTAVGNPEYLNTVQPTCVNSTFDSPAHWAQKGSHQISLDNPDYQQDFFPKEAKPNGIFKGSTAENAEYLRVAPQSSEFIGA
On the technique in general: Alamar Blue is a resazurin reagent that responds to reducing activity.

For experiment [4], the target named is HER2 (A775_G776insYVMA) expressing Ba/F3 stable cell line (Homo sapiens, UniProt P04626, DUP772-775, cells depend on it). The experiment is described as follows: Cellular proliferation (Alamar Blue) assay, HER2 A775_G776insYVMA Ba/F3. The conditions noted are these: 72 hr, read-out: YVMA IC50. The essentials: as §1
Chain of HER2 (A775_G776insYVMA) expressing Ba/F3 stable cell line (P04626 with tags, fused parts or gaps DUP772-775): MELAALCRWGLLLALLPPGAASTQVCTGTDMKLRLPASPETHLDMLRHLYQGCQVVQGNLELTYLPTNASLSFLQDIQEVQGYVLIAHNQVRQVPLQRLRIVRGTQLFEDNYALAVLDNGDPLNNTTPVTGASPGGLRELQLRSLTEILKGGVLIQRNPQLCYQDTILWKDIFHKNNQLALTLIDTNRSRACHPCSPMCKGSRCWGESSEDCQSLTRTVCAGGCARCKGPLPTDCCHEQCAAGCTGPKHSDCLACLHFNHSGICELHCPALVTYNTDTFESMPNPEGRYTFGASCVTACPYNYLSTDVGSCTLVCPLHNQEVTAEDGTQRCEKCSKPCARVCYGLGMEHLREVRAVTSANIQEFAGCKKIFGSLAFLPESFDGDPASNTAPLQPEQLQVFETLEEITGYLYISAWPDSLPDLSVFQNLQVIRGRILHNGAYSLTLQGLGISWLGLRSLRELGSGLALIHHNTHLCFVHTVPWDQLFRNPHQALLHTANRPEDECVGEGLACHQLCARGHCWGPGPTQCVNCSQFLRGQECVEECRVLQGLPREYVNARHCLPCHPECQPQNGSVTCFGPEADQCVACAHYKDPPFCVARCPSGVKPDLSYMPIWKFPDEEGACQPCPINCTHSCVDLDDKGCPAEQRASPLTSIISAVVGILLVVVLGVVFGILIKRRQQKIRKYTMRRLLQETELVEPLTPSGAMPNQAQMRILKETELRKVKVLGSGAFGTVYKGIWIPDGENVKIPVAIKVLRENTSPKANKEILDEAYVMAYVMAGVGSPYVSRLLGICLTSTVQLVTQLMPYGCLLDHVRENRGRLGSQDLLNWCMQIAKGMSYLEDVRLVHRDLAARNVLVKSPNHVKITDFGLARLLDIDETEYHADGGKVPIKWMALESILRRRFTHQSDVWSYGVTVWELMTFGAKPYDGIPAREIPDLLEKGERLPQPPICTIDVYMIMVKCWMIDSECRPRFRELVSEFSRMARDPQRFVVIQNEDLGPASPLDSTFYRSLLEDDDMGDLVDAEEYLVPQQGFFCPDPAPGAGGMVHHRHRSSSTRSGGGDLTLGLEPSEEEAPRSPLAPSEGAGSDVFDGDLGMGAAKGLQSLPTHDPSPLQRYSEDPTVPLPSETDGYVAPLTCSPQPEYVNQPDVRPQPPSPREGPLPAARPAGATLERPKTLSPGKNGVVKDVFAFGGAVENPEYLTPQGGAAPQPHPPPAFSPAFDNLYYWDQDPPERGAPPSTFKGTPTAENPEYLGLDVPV
Setting [5] is: Homo sapiens, A-431; A431 cells, Alamar Blue, 72 hr; read-out: A431 IC50.
The mark [6] stands for this setting: Homo sapiens, A-431; A431 cells, 72 hr, Alamar Blue; read-out: A431 IC50.

Like-named read-outs stand apart in the source and are kept apart here. A value given as a limit tells only on which side of the number the result lay.

Chain of EGFR(D770_N771insSVD) expressing Ba/F3 stable cell line (P00533 with tags, fused parts or gaps DUP768-770): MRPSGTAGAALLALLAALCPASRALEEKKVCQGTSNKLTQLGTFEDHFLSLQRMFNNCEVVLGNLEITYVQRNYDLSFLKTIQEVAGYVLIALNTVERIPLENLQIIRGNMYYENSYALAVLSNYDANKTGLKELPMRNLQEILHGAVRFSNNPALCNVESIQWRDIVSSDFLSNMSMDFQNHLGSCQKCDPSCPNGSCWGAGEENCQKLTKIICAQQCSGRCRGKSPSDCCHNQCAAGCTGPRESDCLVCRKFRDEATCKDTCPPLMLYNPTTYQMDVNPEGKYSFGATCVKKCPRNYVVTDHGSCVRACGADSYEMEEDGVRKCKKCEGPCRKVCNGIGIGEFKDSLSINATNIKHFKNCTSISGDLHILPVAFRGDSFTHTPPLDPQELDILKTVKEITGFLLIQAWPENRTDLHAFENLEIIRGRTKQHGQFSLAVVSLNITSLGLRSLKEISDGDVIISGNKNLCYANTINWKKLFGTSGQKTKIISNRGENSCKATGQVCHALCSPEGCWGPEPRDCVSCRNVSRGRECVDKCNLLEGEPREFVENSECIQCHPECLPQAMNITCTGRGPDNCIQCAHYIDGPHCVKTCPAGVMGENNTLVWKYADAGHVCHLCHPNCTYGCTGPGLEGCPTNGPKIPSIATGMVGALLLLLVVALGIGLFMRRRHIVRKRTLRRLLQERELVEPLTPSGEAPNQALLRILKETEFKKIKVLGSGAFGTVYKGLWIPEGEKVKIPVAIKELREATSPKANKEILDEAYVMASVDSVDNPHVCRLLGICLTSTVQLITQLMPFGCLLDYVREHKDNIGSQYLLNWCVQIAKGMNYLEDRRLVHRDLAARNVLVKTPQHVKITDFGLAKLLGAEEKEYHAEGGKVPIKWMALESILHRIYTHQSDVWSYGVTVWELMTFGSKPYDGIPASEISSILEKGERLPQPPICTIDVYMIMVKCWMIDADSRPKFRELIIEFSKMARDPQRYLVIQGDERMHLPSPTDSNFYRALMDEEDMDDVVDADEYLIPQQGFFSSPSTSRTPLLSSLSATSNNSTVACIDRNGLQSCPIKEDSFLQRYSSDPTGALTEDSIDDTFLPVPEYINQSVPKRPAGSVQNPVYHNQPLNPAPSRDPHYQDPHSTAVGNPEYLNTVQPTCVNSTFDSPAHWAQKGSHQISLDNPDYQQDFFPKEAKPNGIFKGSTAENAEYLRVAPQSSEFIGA
Chain of EGFR (A767_dupASV) expressing Ba/F3 stable cell line (P00533 with tags, fused parts or gaps DUP767-769): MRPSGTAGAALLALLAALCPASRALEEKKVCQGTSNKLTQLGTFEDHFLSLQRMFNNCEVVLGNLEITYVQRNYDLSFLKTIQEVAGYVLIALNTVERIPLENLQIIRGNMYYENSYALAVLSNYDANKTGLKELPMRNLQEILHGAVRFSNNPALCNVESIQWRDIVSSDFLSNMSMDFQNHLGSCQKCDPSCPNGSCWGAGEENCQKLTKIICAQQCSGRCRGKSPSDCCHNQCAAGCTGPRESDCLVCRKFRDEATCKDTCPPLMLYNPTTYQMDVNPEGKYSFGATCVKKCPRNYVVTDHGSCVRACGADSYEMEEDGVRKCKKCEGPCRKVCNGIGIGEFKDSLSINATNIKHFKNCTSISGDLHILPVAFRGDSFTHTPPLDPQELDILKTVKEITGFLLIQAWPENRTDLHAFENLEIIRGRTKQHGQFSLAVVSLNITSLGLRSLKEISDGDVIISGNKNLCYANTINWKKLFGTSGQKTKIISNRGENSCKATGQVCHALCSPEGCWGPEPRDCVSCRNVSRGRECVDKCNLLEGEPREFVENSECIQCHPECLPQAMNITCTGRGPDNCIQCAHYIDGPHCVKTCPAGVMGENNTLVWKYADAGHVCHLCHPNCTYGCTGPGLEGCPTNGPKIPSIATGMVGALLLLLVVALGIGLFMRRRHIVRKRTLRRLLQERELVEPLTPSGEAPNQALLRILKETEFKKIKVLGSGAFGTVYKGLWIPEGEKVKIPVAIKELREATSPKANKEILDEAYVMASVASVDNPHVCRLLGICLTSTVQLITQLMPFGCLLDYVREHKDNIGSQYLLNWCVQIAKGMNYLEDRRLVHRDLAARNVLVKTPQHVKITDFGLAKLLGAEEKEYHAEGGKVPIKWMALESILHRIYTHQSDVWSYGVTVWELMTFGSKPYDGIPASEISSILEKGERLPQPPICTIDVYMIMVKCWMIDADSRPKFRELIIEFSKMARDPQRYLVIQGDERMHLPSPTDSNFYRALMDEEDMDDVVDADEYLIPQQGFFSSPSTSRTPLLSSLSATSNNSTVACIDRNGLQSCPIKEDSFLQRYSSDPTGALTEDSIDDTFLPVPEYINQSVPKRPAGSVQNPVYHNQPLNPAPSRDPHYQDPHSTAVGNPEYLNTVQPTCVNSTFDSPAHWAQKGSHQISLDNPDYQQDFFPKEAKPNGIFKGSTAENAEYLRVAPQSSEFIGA

As a reminder, the IC50 is the concentration at which inhibition is half-maximal. For the compound `C=CC(=O)Nc1ccc(F)c(Nc2nc(Nc3cnn(C4CCC(O)CC4)c3)ncc2Cl)c1` (centres unmarked) [Compound 1, N-(3-((5-chloro-2-((1-(4-hydroxycyclohexyl)-1H-pyrazol-4-yl)amino)pyrimidin-4-yl)amino)-4-fluorophenyl)acrylamide], the GI50 in experiment [1] came out at 1030 nM; in experiment [2] it was 930 nM; in experiment [3], 796 nM. Moreover, the IC50 in the experiment with A431 cells (setting [5]) came out at 3920 nM.

Consider `C=CC(=O)Nc1ccc(F)c(Nc2nc(Nc3ccc(OC)nc3)ncc2Cl)c1` [Compound 22, N-(3-((5-chloro-2-((6-methoxypyridin-3-yl)amino)pyrimidin-4-yl)amino)-4-fluorophenyl)acrylamide], for which the GI50 in experiment [1] came to 7950 nM; in experiment [2], 3000 nM; in experiment [3], 4740 nM. Also, the IC50 with A431 cells (setting [5]) came out at 7100 nM.

Regarding `C=C(F)C(=O)Nc1ccc(F)c(Nc2nc(Nc3cnn(C)c3)ncc2Cl)c1` [Compound 23, N-(3-((5-chloro-2-((1-methyl-1H-pyrazol-4-yl)amino)pyrimidin-4-yl)amino)-4-fluorophenyl)-2-fluoroacrylamide], the figures for the GI50 in experiment [1], in experiment [2] and in experiment [3] were greater than 10000 nM, 9920 nM and 4470 nM, respectively. The IC50 in the experiment with A431 cells (setting [5]) is greater than 10000 nM.

As for `C=C(F)C(=O)NC1CCCC(Nc2nc(Nc3cnn(C)c3)ncc2Cl)C1` (centres unmarked) [Compound 24], the GI50 in experiment [1] was greater than 10000 nM; in experiment [2], greater than 10000 nM; in experiment [3] it was 4130 nM. Also, in the experiment on A431 cells (setting [5]), the IC50 is greater than 10000 nM.

With `C=CC(=O)Nc1ccc(F)c(Nc2nc(Nc3cnn(C)c3)ncc2-c2ccc(Cl)nc2)c1` [Compound 101, N-(3-((5-(6-chloropyridin-3-yl)-2-((1-methyl-1H-pyrazol-4-yl)amino)pyrimidin-4-yl)amino)-4-fluorophenyl)acrylamide], the results for the GI50 in experiment [2] and in experiment [3] were 13 nM and 30 nM, respectively. For the same compound, the IC50 with A431 cells (setting [5]) is 56 nM.

As to `C=CC(=O)Nc1ccc(F)c(Nc2nc(Nc3cnn(C)c3)ncc2-c2cnc(C(F)(F)F)nc2)c1` [Compound 123, N-(4-fluoro-3-((2-((1-methyl-1H-pyrazol-4-yl)amino)-2′-(trifluoromethyl)-[5,5′-bipyrimidin]-4-yl)amino)phenyl)acrylamide], the GI50 in experiment [1] turned out to be 24 nM; in experiment [2], 16 nM; in experiment [3] it was 30 nM.

`[2H]C([2H])=CC(=O)Nc1ccc(F)c(Nc2nc(Nc3cnn(C)c3)ncc2-c2ccc(Br)cc2)c1` [Compound 250, N-(3-((5-(4-bromophenyl)-2-((1-methyl-1H-pyrazol-4-yl)amino)pyrimidin-4-yl)amino)-4-fluorophenyl)acrylamide-3,3-d2]: the GI50 in experiment [1] turned out to be 34 nM; in experiment [2], 47 nM; in experiment [4] it was 204 nM. In the experiment on A431 cells (setting [6]), the IC50 came to 65 nM.

`C#CC(=O)Nc1ccc(F)c(Nc2nc(Nc3cnn(C)c3)ncc2-c2ccc(C(F)(F)F)cc2)c1` [Compound 254, N-[4-fluoro-3-({2-[(1-methyl-1H-pyrazol-4-yl)amino]-5-[4-(trifluoromethyl)phenyl]pyrimidin-4-yl}amino)phenyl] prop-2-ynamide]: the figures for the GI50 in experiment [1], in experiment [2] and in experiment [4] were 8460 nM, 9470 nM and 8670 nM, respectively. Also, the IC50 with A431 cells (setting [6]) was found to be 1000 nM.

As to `C=CC(=O)Nc1ccc(F)c(Nc2nc(Nc3cnn(C)c3)ncc2Br)c1` [Compound 256, N-(3-((5-bromo-2-((1-methyl-1H-pyrazol-4-yl)amino)pyrimidin-4-yl)amino)-4-fluorophenyl)acrylamide], the GI50 in experiment [1] was 923 nM; in experiment [2], 411 nM; in experiment [4], 755 nM. Further, the IC50 with A431 cells (setting [6]) is 1020 nM.

Consider `C=CC(=O)Nc1ccc(F)c(Nc2nc(Nc3cnn(C)c3)ncc2-c2ccc3ncnn3c2)c1` [Compound 279, N-(3-((5-([1,2,4]triazolo[1,5-a]pyridin-6-yl)-2-((1-methyl-1H-pyrazol-4-yl)amino)pyrimidin-4-yl)amino)-4-fluorophenyl)acrylamide], for which the GI50 in experiment [1] was found to be 149 nM; in experiment [2], 328 nM; in experiment [4], 471 nM. Moreover, the concentration for half-maximal inhibition (IC50) in the experiment with A431 cells (setting [6]) came out at 93 nM.

Regarding `C=CC(=O)Nc1cccc(Nc2nc(Nc3cnn(C)c3)ncc2-c2ccc(CC(F)(F)F)cc2)c1` [Compound 293, N-(3-((2-((1-methyl-1H-pyrazol-4-yl)amino)-5-(4-(2,2,2-trifluoroethyl)phenyl)pyrimidin-4-yl)amino)phenyl)acrylamide], the GI50 turned out to be 21 nM in experiment [1], 28 nM in experiment [2] and 110 nM in experiment [4]. The IC50 in the experiment on A431 cells (setting [6]) worked out at 4 nM.

With `C=CC(=O)Nc1ccc(F)c(Nc2nc(Nc3cnn(C)c3)ncc2-c2ccc(C3(C(F)(F)F)CC3)cc2)c1` [Compound 294, N-(4-fluoro-3-((2-((1-methyl-1H-pyrazol-4-yl)amino)-5-(4-(1-(trifluoromethyl)cyclopropyl)phenyl)pyrimidin-4-yl)amino)phenyl)acrylamide], the results for the GI50 in experiment [1], in experiment [2] and in experiment [4] were 100 nM, 80 nM and 803 nM, respectively. The IC50 in the experiment with A431 cells (setting [6]) was 45 nM.

`C=CC(=O)Nc1cc(F)cc(Nc2nc(Nc3cnn(C)c3)ncc2-c2ccc(CC(F)(F)F)cc2)c1` [Compound 295, N-(3-fluoro-5-((2-((1-methyl-1H-pyrazol-4-yl)amino)-5-(4-(2,2,2-trifluoroethyl)phenyl)pyrimidin-4-yl)amino)phenyl)acrylamide]: the results for the GI50 in experiment [1], in experiment [2] and in experiment [4] were 34 nM, 38 nM and 210 nM, respectively. Besides, in the experiment on A431 cells (setting [6]), the IC50 amounted to 6 nM.

With `C=CC(=O)Nc1ccc(F)c(Nc2nc(Nc3cnn(C)c3)ncc2-c2ccc(C(F)(F)C(F)(F)F)cc2)c1` [Compound 296, N-(4-fluoro-3-((2-((1-methyl-1H-pyrazol-4-yl)amino)-5-(4-(perfluoroethyl)phenyl)pyrimidin-4-yl)amino)phenyl)acrylamide], the GI50 in experiment [1] came out at 84 nM; in experiment [2], 106 nM; in experiment [4], 971 nM. Further, in the experiment on A431 cells (setting [6]), the IC50 amounted to 32 nM.

`C=CC(=O)Nc1ccc(F)c(Nc2nc(Nc3cnn(C)c3)ncc2-c2csc(Cl)c2)c1` [Compound 298, N-(3-((5-(5-chlorothiophen-3-yl)-2-((1-methyl-1H-pyrazol-4-yl)amino)pyrimidin-4-yl)amino)-4-fluorophenyl)acrylamide]: the GI50 in experiment [1] turned out to be 99 nM; in experiment [2], 128 nM; in experiment [4], 402 nM. In addition, the IC50 in the experiment with A431 cells (setting [6]) is 120 nM.

For the compound `C=CC(=O)Nc1ccc(F)c(Nc2nc(Nc3cnn(C)c3)ncc2-c2ccc3ccoc3c2)c1` [Compound 299, N-(3-((5-(benzofuran-6-yl)-2-((1-methyl-1H-pyrazol-4-yl)amino)pyrimidin-4-yl)amino)-4-fluorophenyl)acrylamide], the GI50 in experiment [1] was 99 nM; in experiment [2], 257 nM; in experiment [4] it was 339 nM. Also, in the experiment with A431 cells (setting [6]), the IC50 came to 173 nM.

Consider `C=CC(=O)Nc1ccc(F)c(Nc2nc(Nc3cnn(C)c3)ncc2-c2ccc(Oc3cccc(F)c3)cc2)c1` [Compound 300, N-(4-fluoro-3-((5-(4-(3-fluorophenoxy)phenyl)-2-((1-methyl-1H-pyrazol-4-yl)amino)pyrimidin-4-yl)amino)phenyl)acrylamide], for which the GI50 in experiment [1] worked out at 1160 nM; in experiment [2], 289 nM; in experiment [4], 9740 nM. The IC50 in the experiment with A431 cells (setting [6]) was determined as 229 nM.

Turning to `CN(C)C/C=C/C(=O)Nc1ccc(F)c(Nc2nc(Nc3cnn(C)c3)ncc2-c2ccc(CC(F)(F)F)cc2)c1` [Compound 301, (E)-4-(dimethylamino)-N-(4-fluoro-3-((2-((1-methyl-1H-pyrazol-4-yl)amino)-5-(4-(2,2,2-trifluoroethyl)phenyl)pyrimidin-4-yl)amino)phenyl)but-2-enamide], the GI50 in experiment [1] came to 193 nM; in experiment [2] it was 68 nM; in experiment [4], 187 nM. In addition, in the experiment on A431 cells (setting [6]), the IC50 is 16 nM.

For `C=CC(=O)Nc1cc(Br)cc(Nc2nc(Nc3cnn(C)c3)ncc2-c2ccc(CC(F)(F)F)cc2)c1` [Compound 302, N-(3-bromo-5-((2-((1-methyl-1H-pyrazol-4-yl)amino)-5-(4-(2,2,2-trifluoroethyl)phenyl)pyrimidin-4-yl)amino)phenyl)acrylamide], the GI50 in experiment [1] came out at 99 nM; in experiment [2] it was 67 nM; in experiment [4], 653 nM. Further, in the experiment with A431 cells (setting [6]), the IC50 was 12 nM.

For the origin of these results see patent publication US12686673B2 (Blueprint Medicines Corporation, priority 2020, dated 2026).
